A short description of assay [1]: Inhibition of histamine H1 receptor.
Assay [2] is described as follows: Inhibition of histamine H2 receptor.
The target in assay [3] is 5-hydroxytryptamine receptor 4 (Rattus norvegicus, UniProt Q62758). In words: Inhibition of rat hydroxytryptamine 4 receptor.
For assay [4], the target named is 5-hydroxytryptamine receptor 6 (Rattus norvegicus, UniProt P31388). Kind of assay: Inhibition of rat hydroxytryptamine 6 receptor.
For assay [5], the target named is T1, Adrenergic receptor alpha-2 (Homo sapiens, UniProt P08913+P18825+P18089).
T1 sequence (P08913 whole entry): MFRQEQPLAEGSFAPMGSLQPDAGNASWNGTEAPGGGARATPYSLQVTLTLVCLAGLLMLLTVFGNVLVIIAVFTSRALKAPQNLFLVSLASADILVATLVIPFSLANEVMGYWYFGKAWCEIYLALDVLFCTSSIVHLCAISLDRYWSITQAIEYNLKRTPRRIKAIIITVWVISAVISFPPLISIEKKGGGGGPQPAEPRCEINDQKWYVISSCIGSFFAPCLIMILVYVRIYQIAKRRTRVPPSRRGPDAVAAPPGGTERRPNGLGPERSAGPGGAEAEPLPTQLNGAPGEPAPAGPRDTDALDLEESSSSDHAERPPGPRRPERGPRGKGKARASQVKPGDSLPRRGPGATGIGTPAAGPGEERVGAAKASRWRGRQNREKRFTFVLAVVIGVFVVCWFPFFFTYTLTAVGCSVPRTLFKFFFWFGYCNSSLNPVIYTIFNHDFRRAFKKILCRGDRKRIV
T1 sequence (P18825 whole entry): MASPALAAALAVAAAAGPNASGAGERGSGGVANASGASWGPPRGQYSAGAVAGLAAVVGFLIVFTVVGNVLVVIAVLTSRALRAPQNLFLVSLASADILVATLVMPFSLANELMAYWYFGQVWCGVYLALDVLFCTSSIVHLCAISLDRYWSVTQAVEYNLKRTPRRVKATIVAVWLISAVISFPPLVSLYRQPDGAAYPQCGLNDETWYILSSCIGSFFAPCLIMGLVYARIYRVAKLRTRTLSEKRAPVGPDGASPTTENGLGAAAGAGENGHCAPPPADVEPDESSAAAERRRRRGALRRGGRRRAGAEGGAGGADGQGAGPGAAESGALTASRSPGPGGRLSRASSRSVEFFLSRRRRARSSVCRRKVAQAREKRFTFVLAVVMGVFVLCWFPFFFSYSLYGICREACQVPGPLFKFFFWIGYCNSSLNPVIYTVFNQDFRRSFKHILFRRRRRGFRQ
T1 sequence (P18089 whole entry): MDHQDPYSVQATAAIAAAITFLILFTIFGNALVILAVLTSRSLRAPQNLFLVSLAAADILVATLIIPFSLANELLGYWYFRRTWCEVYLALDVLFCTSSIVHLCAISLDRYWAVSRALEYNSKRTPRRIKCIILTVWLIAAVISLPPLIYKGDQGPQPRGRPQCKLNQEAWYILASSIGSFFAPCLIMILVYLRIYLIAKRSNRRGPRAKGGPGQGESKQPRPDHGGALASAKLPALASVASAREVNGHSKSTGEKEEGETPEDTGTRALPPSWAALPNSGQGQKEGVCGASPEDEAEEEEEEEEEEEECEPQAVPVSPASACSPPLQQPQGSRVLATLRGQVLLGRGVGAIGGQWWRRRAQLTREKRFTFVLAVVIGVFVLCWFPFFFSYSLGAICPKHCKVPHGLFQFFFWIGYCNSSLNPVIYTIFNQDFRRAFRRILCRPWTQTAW
Kind of assay: Inhibition of alpha-2-adrenergic receptor. The assay is classed as protein assay.

The target of a further assay is D(3) dopamine receptor (Rattus norvegicus, UniProt P19020). In words: Inhibition of rat dopamine D3 receptor.
The next assay concerns the target T2, D(4) dopamine receptor (Rattus norvegicus, UniProt P30729).
T2 sequence (P30729 whole entry): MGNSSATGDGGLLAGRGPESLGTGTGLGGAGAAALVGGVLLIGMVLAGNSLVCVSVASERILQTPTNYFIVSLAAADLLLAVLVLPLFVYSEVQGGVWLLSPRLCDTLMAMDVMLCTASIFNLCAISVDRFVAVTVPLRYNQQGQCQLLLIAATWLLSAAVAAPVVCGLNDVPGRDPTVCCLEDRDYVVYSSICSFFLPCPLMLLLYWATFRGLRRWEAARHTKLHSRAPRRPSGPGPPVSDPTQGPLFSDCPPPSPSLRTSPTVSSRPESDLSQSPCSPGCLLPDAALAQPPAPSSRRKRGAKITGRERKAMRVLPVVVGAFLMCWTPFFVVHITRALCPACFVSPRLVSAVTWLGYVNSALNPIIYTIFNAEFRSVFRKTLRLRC
In words: Inhibition of rat dopamine D4 receptor.

Assay [6] concerns the target 5-hydroxytryptamine receptor 1D (Rattus norvegicus, UniProt P28565). In words: Inhibition of rat hydroxytryptamine 1D receptor.
Assay [7] concerns the target 5-hydroxytryptamine receptor 2A (Rattus norvegicus, UniProt P14842). Kind of assay: Inhibition of rat hydroxytryptamine 2A receptor.
Assay [8] has as its target T3, 5-hydroxytryptamine receptor 2C (Rattus norvegicus, UniProt P08909).
T3 sequence (P08909 whole entry): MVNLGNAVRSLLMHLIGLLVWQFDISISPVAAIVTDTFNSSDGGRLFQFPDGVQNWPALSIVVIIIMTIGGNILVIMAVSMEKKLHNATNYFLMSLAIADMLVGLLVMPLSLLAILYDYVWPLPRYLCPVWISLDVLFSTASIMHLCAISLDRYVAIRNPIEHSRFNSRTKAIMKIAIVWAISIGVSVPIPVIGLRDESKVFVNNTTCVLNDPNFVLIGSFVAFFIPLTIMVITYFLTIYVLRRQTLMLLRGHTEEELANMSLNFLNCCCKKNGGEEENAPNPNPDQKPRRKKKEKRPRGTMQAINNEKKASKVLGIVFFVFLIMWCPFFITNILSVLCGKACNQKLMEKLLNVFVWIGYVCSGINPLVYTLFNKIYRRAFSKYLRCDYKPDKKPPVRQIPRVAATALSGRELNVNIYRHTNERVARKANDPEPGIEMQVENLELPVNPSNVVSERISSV
Kind of assay: Inhibition of rat hydroxytryptamine 2C receptor.

The nature of assay [9]: Inhibition of kappa opioid receptor.

The record followed here is ChEMBL document CHEMBL1138747, “Synthesis and structure--activity relationship in a class of indolebutylpiperazines as dual 5-HT(1A) receptor agonists and serotonin reuptake inhibitors” (J Med Chem, 2004).

pIC50: −log10 of the molar value. A value given as a limit tells only on which side of the number the result lay.

5-hydroxytryptamine receptor 2A, sequence (P14842 whole entry): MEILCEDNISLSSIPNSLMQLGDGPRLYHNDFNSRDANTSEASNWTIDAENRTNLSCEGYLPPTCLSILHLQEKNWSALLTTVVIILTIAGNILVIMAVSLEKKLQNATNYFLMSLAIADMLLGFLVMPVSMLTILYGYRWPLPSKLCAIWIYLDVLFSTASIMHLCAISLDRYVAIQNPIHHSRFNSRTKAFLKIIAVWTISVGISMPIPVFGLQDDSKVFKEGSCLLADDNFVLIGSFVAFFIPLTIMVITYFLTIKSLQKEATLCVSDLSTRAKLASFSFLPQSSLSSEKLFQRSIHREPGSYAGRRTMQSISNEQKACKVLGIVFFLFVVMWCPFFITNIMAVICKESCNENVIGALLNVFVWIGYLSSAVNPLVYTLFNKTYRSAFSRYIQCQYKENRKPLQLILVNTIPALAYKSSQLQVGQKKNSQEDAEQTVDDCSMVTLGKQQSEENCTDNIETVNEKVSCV
5-hydroxytryptamine receptor 4, sequence (Q62758 whole entry): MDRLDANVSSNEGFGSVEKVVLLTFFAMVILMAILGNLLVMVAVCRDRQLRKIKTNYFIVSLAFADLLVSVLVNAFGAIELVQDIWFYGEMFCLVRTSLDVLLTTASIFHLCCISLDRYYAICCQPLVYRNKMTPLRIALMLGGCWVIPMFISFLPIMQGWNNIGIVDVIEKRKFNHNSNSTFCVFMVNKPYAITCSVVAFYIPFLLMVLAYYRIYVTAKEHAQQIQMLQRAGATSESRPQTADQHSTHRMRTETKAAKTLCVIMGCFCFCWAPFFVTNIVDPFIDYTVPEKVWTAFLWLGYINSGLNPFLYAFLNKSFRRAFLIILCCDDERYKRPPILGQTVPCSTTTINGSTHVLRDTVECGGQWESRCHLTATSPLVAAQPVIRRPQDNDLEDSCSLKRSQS
5-hydroxytryptamine receptor 6, sequence (P31388 whole entry): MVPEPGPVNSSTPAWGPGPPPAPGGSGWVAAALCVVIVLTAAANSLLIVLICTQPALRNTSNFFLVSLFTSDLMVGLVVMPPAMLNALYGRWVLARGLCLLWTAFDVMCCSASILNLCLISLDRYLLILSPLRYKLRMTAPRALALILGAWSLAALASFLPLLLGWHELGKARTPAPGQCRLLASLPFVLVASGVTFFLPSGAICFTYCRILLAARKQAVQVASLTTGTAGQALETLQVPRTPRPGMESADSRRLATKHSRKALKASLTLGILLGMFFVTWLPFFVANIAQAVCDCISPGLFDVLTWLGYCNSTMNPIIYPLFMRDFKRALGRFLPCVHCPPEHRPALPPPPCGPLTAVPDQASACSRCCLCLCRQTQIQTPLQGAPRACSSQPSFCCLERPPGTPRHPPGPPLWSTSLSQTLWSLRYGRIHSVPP
5-hydroxytryptamine receptor 1D, sequence (P28565 whole entry): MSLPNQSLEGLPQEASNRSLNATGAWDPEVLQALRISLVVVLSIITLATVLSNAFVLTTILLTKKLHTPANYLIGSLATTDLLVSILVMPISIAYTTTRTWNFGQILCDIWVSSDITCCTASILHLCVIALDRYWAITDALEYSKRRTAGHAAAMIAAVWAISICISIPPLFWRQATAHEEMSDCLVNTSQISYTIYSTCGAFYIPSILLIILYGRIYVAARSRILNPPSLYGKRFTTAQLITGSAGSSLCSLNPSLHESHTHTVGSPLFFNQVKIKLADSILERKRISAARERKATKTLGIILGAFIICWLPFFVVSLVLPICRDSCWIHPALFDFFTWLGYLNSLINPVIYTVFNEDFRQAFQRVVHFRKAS
D(3) dopamine receptor, sequence (P19020 whole entry): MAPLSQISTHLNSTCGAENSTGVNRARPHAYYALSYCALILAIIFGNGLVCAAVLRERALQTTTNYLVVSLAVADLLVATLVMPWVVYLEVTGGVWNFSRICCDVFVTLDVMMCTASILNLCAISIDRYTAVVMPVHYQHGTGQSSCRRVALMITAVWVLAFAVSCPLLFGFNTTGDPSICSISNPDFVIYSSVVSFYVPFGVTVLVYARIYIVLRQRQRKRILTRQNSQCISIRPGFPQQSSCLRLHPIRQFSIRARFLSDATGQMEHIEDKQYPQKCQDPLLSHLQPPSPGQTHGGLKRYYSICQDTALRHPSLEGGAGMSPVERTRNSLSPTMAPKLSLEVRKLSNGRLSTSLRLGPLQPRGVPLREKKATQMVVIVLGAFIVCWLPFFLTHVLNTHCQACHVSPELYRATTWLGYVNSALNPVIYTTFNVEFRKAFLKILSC

On to `N#Cc1ccc2[nH]cc(CCCCN3CCN(c4ccc5oc(C(N)=O)cc5c4)CC3)c2c1` [VILAZODONE], for which the negative-log IC50 (pIC50) in assay [1] was 6.50; in assay [2], less than 6.00; in assay [3], 6.60; in assay [4], 5.52; against D(3) dopamine receptor it was 7.15; against D(4) dopamine receptor it was 5.47. The pIC50 in [6] was 5.40; in [7], 5.82; in assay [8], 5.70; in [9], less than 6.00. Further, in assay [5], the 50% inhibitory concentration (IC50) stood at 6000 nM.

Usually pIC50 stands for the negative decadic logarithm of the IC50, by convention in mol/L. Higher therefore signals a low IC50. By IC50 is commonly meant the concentration needed to halve the response being measured. Lower therefore signals higher potency.
